One experiment concerns AotrpC-disrupted strain. The experiment can be described thus: Growth on Sabouraud Dextrose Agar containing 5-FAA and 1 mM tryptophan. Format: cell-based, Aspergillus oryzae. The method, then:
(§1) The AotrpC-disrupted strain and Aspergillus oryzae RIB40 strain as a control were inoculated onto the plates of Sabouraud Dextrose Agar medium (BD) containing 0.12% (w/v) 5-FAA and 1 mM tryptophan, respectively. The plates were incubated at 30° C. for 4 days.
(§2) When the concentration of 5-FAA was changed to 0.1% (w/v), both the AotrpC-disrupted and RIB40 strains grew on the plates.

Experiment [1] relates to Aspergillus oryzae RIB40 strain. The experiment is described as above. Format: cell-based. The method, then:
as §1, §2

The subject of a further experiment is AstrpC-disrupted strain. The experiment can be described thus: Growth on potato dextrose agar containing 5-FAA and 1 mM tryptophan. The experiment is classed as cell-based, Aspergillus sojae. The protocol:
(§3) The AstrpC-disrupted strain and Aspergillus sojae NBRC4239 strain as a control were inoculated onto the plates of potato dextrose agar medium (Nissui Pharmaceutical Co., Ltd.) containing 0.04% (w/v) 5-FAA and 1 mM tryptophan, respectively. The plates were incubated at 30° C. for 4 days. […] In addition, 5-FAA (5-fluoroanthranilic acid; Tokyo Chemical Industry Co., Ltd.) was prepared to become a 10% solution using ethanol, and the solution was added to the medium to ensure that the final concentration became the above-mentioned concentration.
(§4) When the concentration of 5-FAA was changed to 0.02% (w/v), both AstrpC-disrupted and NBRC4239 strains grew on the plates.

The subject of experiment [2] is Aspergillus sojae NBRC4239 strain. Described as above. The experiment is classed as cell-based. The protocol:
as §3, §4

[3] abbreviates: 0.12% (w/v) 5-FAA, 30° C., 4 days.
Where [4] appears, read: 0.04% (w/v) 5-FAA, 30° C., 4 days.

With `Nc1ccc(F)cc1C(=O)O` [5-FAA, 5-fluoroanthranilic acid], the “growth of AotrpC-disrupted strain” value in the experiment with AotrpC-disrupted strain (0.1% (w/v) 5-FAA) and with AotrpC-disrupted strain (setting [3]) was “grew” throughout. In addition, the “growth of RIB40 strain” value in experiment [1] (0.1% (w/v) 5-FAA) was “grew”; in experiment [1] (setting [3]), “did not grow at all”. Further, the “growth of AstrpC-disrupted strain” value in the experiment with AstrpC-disrupted strain (0.02% (w/v) 5-FAA) and in the experiment on AstrpC-disrupted strain (setting [4]) was “grew” each time. The “growth of NBRC4239 strain” value is reported as “grew” in experiment [2] (0.02% (w/v) 5-FAA) and “did not grow at all” in experiment [2] (setting [4]).

The values are drawn from patent US12234466B2, “Aspergillus microorganism carrying disruptions of multiple genes and a method of producing thereof” (KIKKOMAN CORPORATION, priority 2018, dated 2025).
